The values below come from publication PMC3985486 (Biochemistry, 2014).

The structures appear in SMILES notation. ≈ marks a conversion by molar mass, not a printed value.

Test [1] concerns S. aureus strain ATCC 29213. Description: Broth microdilution MIC, S. aureus. It is filed as cell-based, Staphylococcus aureus.
The subject of test [2] is E. faecalis strain ATCC 29212. Description: Broth microdilution MIC, E. faecalis. It is filed as cell-based, Enterococcus faecalis.
Where [3] appears, read: Staphylococcus aureus, ATCC29213.
The mark [4] stands for this setting: Staphylococcus aureus, ATCC29213, pH 5.8.
Where [5] appears, read: Staphylococcus aureus, ATCC29213, pH 7.
Setting [6] is: Enterococcus faecalis, ATCC29212, pH 5.8, E. faecalis 29212, pH 5.8.
Setting [7] is: Enterococcus faecalis, ATCC29212, pH 7, E. faecalis 29212, pH 7.

As to `CCC[C@H]1c2ccccc2C=NN1C(=O)/C=C/c1cc(Cc2cnc(N)nc2N)cc(OC)c1OC` (racemic) [RAB, (S,E)-3-{5-[(2,4-diaminopyrimidin-5-yl)methyl]-2,3-dimethoxyphenyl}-1-[1-propylphthalazin-2(1H)-yl]-2-propen-1-one], the MIC (as a rule, the lowest concentration that inhibits growth of the organism) in test [1] (setting [3]) was 0.06 µg/mL (≈ 0.123 µM); in test [1] (setting [4]), 0.25 µg/mL (≈ 0.514 µM); in test [1] (setting [5]), 0.03 to 0.06 µg/mL (≈ 0.0617 to 0.123 µM); in test [2] (setting [6]), 0.125 to 0.25 µg/mL (≈ 0.257 to 0.514 µM); in test [2] (setting [7]), 0.06 µg/mL (≈ 0.123 µM).
For `COc1cc(Cc2cnc(N)nc2N)cc(OC)c1OC` [TMP, trimethoprim], the “increase in MIC in acidic environment” value is on record as 2–3 fold in test [1] (S. aureus, acidic pH vs pH 7) and 2–3 fold in test [2] (E. faecalis, acidic pH vs pH 7). In addition, the MIC is 2 to 4 µg/mL (≈ 6.89 to 13.8 µM) in test [1] (setting [3]); 8 µg/mL (≈ 27.6 µM) in test [1] (setting [4]); 2 µg/mL (≈ 6.89 µM) in test [1] (setting [5]); 1 µg/mL (≈ 3.44 µM) in test [2] (setting [6]); 0.125 to 0.25 µg/mL (≈ 0.431 to 0.861 µM) in test [2] (setting [7]). Besides, in test [2] (E. faecalis, folinic acid in media vs none), the “shift (increase) in MIC with exogenous folinic acid” value was “up to 1 fold”.
As to `CN[C@H](CC(C)C)C(=O)N[C@H]1C(=O)N[C@@H](CC(N)=O)C(=O)N[C@H]2C(=O)N[C@H]3C(=O)N[C@H](C(=O)N[C@H](C(=O)O)c4cc(O)cc(O)c4-c4cc3ccc4O)[C@H](O)c3ccc(c(Cl)c3)Oc3cc2cc(c3O[C@@H]2O[C@H](CO)[C@@H](O)[C@H](O)[C@H]2O[C@H]2C[C@](C)(N)[C@H](O)[C@H](C)O2)Oc2ccc(cc2Cl)[C@H]1O` [VAN], the MIC in test [1] (S. aureus 29213, folinic acid 0.1 μg/mL added) was 1 µg/mL (≈ 0.69 µM); in test [1] (S. aureus 29213, pH 5.8), 1 µg/mL (≈ 0.69 µM); in test [1] (S. aureus 29213, pH 7), 1 µg/mL (≈ 0.69 µM); in test [2] (E. faecalis 29212, folinic acid 0.1 μg/mL added) it was 2 to 4 µg/mL; in test [2] (E. faecalis 29212, pH 5.8), 1 to 2 µg/mL; in test [2] (E. faecalis 29212, pH 7), 1 to 2 µg/mL.
